We go through 23 compounds from ChEMBL document CHEMBL5385888, “Structure-based discovery of pyrazolamides as novel ERRγ inverse agonists” (Eur J Med Chem, 2023).

Calls of active or inactive are those of the source. No cut-off for these calls is given here.

One test concerns the target T1, Estrogen-related receptor gamma (Mus musculus) (UniProt P62509).
T1 sequence (whole entry): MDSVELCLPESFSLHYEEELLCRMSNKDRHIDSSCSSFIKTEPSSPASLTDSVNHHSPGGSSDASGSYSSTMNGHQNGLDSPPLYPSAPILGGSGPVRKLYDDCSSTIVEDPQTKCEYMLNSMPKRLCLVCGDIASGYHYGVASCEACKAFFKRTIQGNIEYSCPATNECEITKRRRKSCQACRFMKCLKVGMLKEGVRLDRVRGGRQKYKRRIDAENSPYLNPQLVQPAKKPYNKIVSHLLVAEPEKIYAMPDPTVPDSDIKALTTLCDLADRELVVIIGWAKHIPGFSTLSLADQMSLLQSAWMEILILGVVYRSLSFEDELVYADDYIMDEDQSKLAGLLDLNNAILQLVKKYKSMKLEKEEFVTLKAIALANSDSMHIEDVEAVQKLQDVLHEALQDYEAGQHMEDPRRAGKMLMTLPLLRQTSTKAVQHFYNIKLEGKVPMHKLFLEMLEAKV
Kind of test: Inverse agonist activity at Gal4-tagged mouse ERR-gamma LBD transfected in HEK293T cells co-expressing FR-luc assessed as inhibition of transcriptional activity at 10 uM incubated for 24 hrs by luciferase reporter gene assay. In kind it is cell-based.
Conditions: not given
On the technique in general: A reporter such as luciferase makes a cellular process visible.
On to `CN(C)CCCOc1cc(NC(=O)c2cn(-c3ccccc3)nc2-c2ccccc2)cc(C(F)(F)F)c1`, for which the inhibition result is “inactive”. The same measure, in the same setting: the entry for `CCN(CC)C(=O)c1ccc(-n2cc(C(=O)Nc3cc(N)cc(Oc4cccnc4)c3)c(-c3ccccc3)n2)cc1` is “inactive”.

Turning to `COc1cccc(-c2nn(-c3ccccc3)cc2C(=O)Nc2cc(OCCN(C)C)cc(C(F)(F)F)c2)c1`, the inhibition result was “inactive”. On the same count and under the same terms, the entry for `COc1cccc(-c2nn(-c3ccccc3)cc2C(=O)Nc2cc(N)cc(OCCN(C)C)c2)c1` is “inactive”; for `COc1cccc(-c2nn(-c3ccccc3)cc2C(=O)Nc2cc(N)cc(OCCCN(C)C)c2)c1` it is “inactive”.

In the case of `CN(C)CCOc1cc(NC(=O)c2cn(-c3ccccc3)nc2-c2ccccc2)cc(C(F)(F)F)c1`, the inhibition result is “inactive”. On the same count and under the same terms, as for `COc1cccc(-c2nn(-c3ccccc3)cc2C(=O)Nc2cc(OCCCN(C)C)cc(C(F)(F)F)c2)c1`, the entry is “inactive”. Same read-out and setting: as for `Nc1cc(NC(=O)c2cn(-c3ccc(C(=O)O)cc3)nc2-c2ccccc2)cc(Oc2cccnc2)c1`, the entry is “inactive”. The same measure, in the same setting: the entry for `CN(C)CCCOc1cc(N)cc(NC(=O)c2cn(-c3ccccc3)nc2-c2ccccc2)c1` is “inactive”; for `Nc1cc(NC(=O)c2cn(-c3ccc(CO)cc3)nc2-c2ccccc2)cc(Oc2cccnc2)c1` it is “inactive”. On to `COC(=O)c1ccc(-n2cc(C(=O)Nc3cc(N)cc(Oc4cccnc4)c3)c(-c3ccccc3)n2)cc1`, for which the inhibition result was “inactive”.

Still in this test, the particulars now being: filed as inverse agonist.
Regarding `Cc1ccc(-c2nn(-c3ccccc3)cc2C(=O)Nc2ccc(Oc3ccc(C(C)C)cc3)cc2)cc1`, the outcome was Active.

The next test concerns the target T2, Estrogen-related receptor gamma (Mus musculus, UniProt P62509).
T2 sequence (P62509 whole entry): T1 sequence (whole entry)
Kind of test: Inverse agonist activity at Gal4-tagged mouse ERR-gamma LBD transfected in HEK293T cells co-expressing FR-luc assessed as inhibition of transcriptional activity incubated for 24 hrs by luciferase reporter gene assay. Type of test: cell-based.
Conditions: not given
Regarding `COc1cccc(-c2nn(-c3ccccc3)cc2C(=O)Nc2cccc(Oc3cccnc3)c2)c1`, the IC50 came to 2.11 µM. Same read-out and setting: the figure for `O=C(Nc1cc(Oc2cccnc2)cc(C(F)(F)F)c1)c1cn(-c2ccccc2)nc1-c1ccccc1` is 6.75 µM; for `COc1cc(C)ccc1Oc1ccc(NC(=O)c2cn(-c3ccccc3)nc2-c2ccccc2)cc1` it is 9.48 µM; for `COc1cc(C)ccc1Oc1ccc(NC(=O)c2cn(-c3ccccc3)nc2-c2ccc(C)cc2)cc1` it is 5.48 µM. On the same count and under the same terms, the figure for `COc1ccc(-c2nn(-c3ccccc3)cc2C(=O)Nc2ccc(Oc3ccc(C(C)C)cc3)cc2)cc1OC` is 9.95 µM; for `COC(=O)c1cccc(Oc2cc(N)cc(NC(=O)c3cn(-c4ccccc4)nc3-c3ccccc3)c2)c1` it is 8.42 µM. As for `COc1ccc(-c2nn(-c3ccccc3)cc2C(=O)Nc2ccc(Oc3ccc(C)cc3OC)cc2)cc1OC`, the IC50 was determined as 10.4 µM. Still for that read-out and setting: the figure for `COc1cccc(Oc2cc(N)cc(NC(=O)c3cn(-c4ccccc4)nc3-c3ccccc3)c2)c1` is 13.5 µM. On the same count and under the same terms, the figure for `COc1cccc(-c2nn(-c3ccccc3)cc2C(=O)Nc2cc(N)cc(Oc3cccnc3)c2)c1` is 2.91 µM. For the compound `COc1cccc(Oc2cc(N)cc(NC(=O)c3cn(-c4ccccc4)nc3-c3cccc(OC)c3)c2)c1`, the half-maximal inhibitory concentration (IC50) worked out at 8.47 µM. The same measure, in the same setting: the figure for `O=C(Nc1cccc(Oc2cccnc2)c1)c1cn(-c2ccccc2)nc1-c1ccccc1` is 1.33 µM.

As a reminder, the IC50 is the point on the concentration scale where inhibition reaches its midpoint.
